{
  "source": "paper doi:10.1101/2025.04.01.646723v2",
  "about": "(bioRxiv, 2025)",
  "origin": "cited, not measured here",
  "test_system": "N. benthamiana leaves",
  "details": "DCIP, 100 μM, at least 5 biological replicates, ref [15]",
  "data": [
    {"substance": "nona-arginine [R9]", "values": [
      {"measurement": "cellular internalization (in words)", "value": "efficiently internalized"}
    ]}
  ]
}
